The text below walks through data of US20250263496A1, “Neutrophil-Activating Therapy for the Treatment of Cancer” (The Board of Trustees of the Leland Stanford Junior …, priority 2024, published 2025).

For test [1], the system named is neutrophils. Put plainly: Flow cytometry of neutrophils in B16 tumors and blood. Particulars: agent given prior to neutrophil-activating therapy. Format: in vivo, mouse. The method, then:
Tumors were digested with collagenase IV and DNase I as described above. Following digestion, tissue was mashed through a […] cell strainer (Falcon), washed, red blood cells were lysed with ACK buffer for 1 minute, and cells were washed again prior to antibody staining. Blood was harvested into PBS plus 20 mM EDTA by cardiac puncture or retro-orbital bleed, lysed in ACK buffer for 5 minutes, and washed prior to antibody staining. Bone marrow was harvested by grinding the femur and tibia in a mortar and pestle and mashing through a […] strainer (Falcon), or by flushing femurs with a syringe and needle, then lysed in ACK buffer for 5 minutes and washed prior to antibody staining. Spleens were harvested by mashing through a […] cell strainer (Falcon), then lysed in ACK buffer for 5 minutes and washed prior to antibody staining.
Live cells were stained with antibodies on ice for 20 minutes in FACS buffer (HBSS 1% BSA 5 mM EDTA) with Brilliant Stain Buffer Plus (BD). Following staining, cells were washed twice in FACS buffer and resuspended in 1 μg/ml DAPI plus AccuCount Fluorescent Particles (Spherotech) for absolute count determination. In some experiments, live cells were stained with Live/Dead Fixable Blue Stain (Invitrogen) in HBSS on ice for 20 minutes prior to antibody staining, and DAPI was not used. […]
(Flow cytometry measures light scatter and fluorescence of single cells or particles in a stream.)

Test [2] has as its system B16 tumors. Put plainly: TUNEL staining of cell death in B16 tumors. Particulars: agent given prior to neutrophil-activating therapy. Format: in vivo, mouse. The protocol:
Tumors were dissected away from surrounding fat, fixed in 2% paraformaldehyde for 2 hours at 4° C., equilibrated in a 30% sucrose solution at 4° C., and embedded and frozen in O.C.T. Compound (Tissue-Tek). Slides were cut to […] and blocked with 1% BSA and 10% serum matched to the secondary antibody species. The following antibodies were used for immunofluorescence: PE anti-Ly6G (clone 1A8, BioLegend), DyLight 650 anti-gp75 (clone TA99, Bio X Cell, labeled using DyLight 650 NHS Ester (Thermo Scientific)), fluorescein anti-gp75 (clone TA99, Bio X Cell, labeled using NHS-Fluorescein (Thermo Scientific)), FITC anti-DNA/RNA damage (clone 15A3, recognizing 8-hydroxy-2′-deoxyguanosine/8-oxo-7,8-dihydroguanine/8-oxo-7,8-dihydroguanosine, Abcam), and AF647 anti-C3 (clone 11H9, Novus Biologicals). DAPI (Invitrogen) was stained at 1 μg/ml. FITC/fluorescein signal was amplified using AF488 anti-FITC (ThermoFisher Scientific), and PE was amplified using biotin anti-PE (clone PE001, BioLegend) followed by DyLight 594 streptavidin (BioLegend) or DyLight 649 streptavidin (BioLegend). Prior to use of biotinylated antibodies, endogenous biotin was blocked using the Avidin/Biotin Blocking Kit (Vector Laboratories). Prior to DNA/RNA damage staining, sections were permeabilized with 0.1% Triton X-100 in 0.1% sodium citrate. TUNEL (Terminal deoxynucleotidyl transferase dUTP nick end labeling) staining was performed using the In Situ Cell Death Detection Kit, TMR Red (Roche) according to the manufacturer's instructions. […] All parameters that were quantified were acquired with identical microscope settings and adjusted identically in Photoshop, and all adjustments were applied equally across the entire tumor. Quantification was performed in ImageJ, using the wand tool on the overlaid multichannel image to draw a border around the tumor and then measuring the percent area within that border with signal for the channel of the marker quantified.

For `N#Cc1cc(-c2n[nH]c(-c3ccncc3)n2)ccn1` [topiroxostat], the “effect of agent on treatment-induced neutrophil tumor infiltration” value in test [1] is given as “did not prevent neutrophil infiltration”. Further, in test [2], the “effect of agent on treatment-induced tumor cell death” value is given as “reduced cell death”.
